Here are results for seven molecules from patent EP0068563A2, “Heterocyclic acetic acid compounds and compositions for treating bone diseases” (THE PROCTER & GAMBLE COMPANY, priority 1981, dated 1983).

A word on the inhibition: it is the drop in the measured response relative to a control, in per cent.

The subject of one assay is Fetal rat bone. In words: PGE2 stimulated in vitro bone resorption in the fetal long bone system (45Ca release). In kind it is cell-based. The note with it: versus control cultures; for inhibition at 390 µM: concentration 0.39 mM; for inhibition at 1560 µM: concentration 1.56 mM. As to the method:
Fetal rat bone was cultured in the medium described in this reference. Bone resorption was stimulated by addition of prostaglandin, PGE2, and measured by the release of previously incorporated ^45Ca into the medium and by changes in the total bone calcium content.
PGE2 Stimulated Bone Resorption in the Fetal Long Bone System

The test system of assay [1] is Weanling male Sprague-Dawley derived rats. Briefly: in vivo periosteal and endosteal bone apposition rates and endosteal resorption rates (tetracycline/DCAF double label, tibial sections). Further details: EBAR (endosteal bone apposition rate) / ERR (endosteal resorption rate): unit not given here. The conditions noted are these: for ERR (endosteal resorption rate) / EBAR (endosteal bone apposition rate) / P BAR (periosteal bone apposition rate): subcutaneous daily, 10 days, rat tibia; for ERR (endosteal resorption rate): control 3.6; for EBAR (endosteal bone apposition rate): control 4.0; for P BAR (periosteal bone apposition rate): control 14.7. The source says:
The following test was used to establish in vivo periosteal and endosteal bone apposition rates and endosteal resorption rates. The test method is a modification of the method of Baylink, et al., J. Clin. Invest.
Weanling male Sprague-Dawley derived rats weighing 50-60 grams (Charles River Breeding Labs, Wilmington, Massachusetts) were allowed 2-3 days to adapt to the laboratory environment before receiving any treatment. Throughout the adaptation and experimental periods the animals were allowed free access to tap water and food (Purina Lab Rat Chow, Ralston Purina Company, St. Louis, Missouri).
On the first day of the experiment all animals were given a subcutaneous injection of tetracycline hydrochloride at a dose of 20 mg/kg to label the skeleton. Test compound and saline (control animals) treatments were also started on the first day of the experiment. They were given subcutaneously under skin flap where the rear legs join the body using alternating sides each day. Since these animals were rapidly growing, body weights were taken daily and dosage adjusted accordingly.
Seven days after the animals received tetracycline they were given a subcutaneous injection of (2,4 bis)N-N'-di (carboxymethyl)amino methylfluorescein (DCAF) at a dose of 20 mg/kg to provide a second skeletal label.
Ten days after treatments were initiated, the animals were sacrificed by carbon dioxide asphyxiation and their left and right tibias and femurs taken and placed in 70% ethanol until they were further processed.
The test comoounds were given as solutions preoared in distilled water, and the pH was adjusted to 7.4. Solution concentrations were adjusted so that constant volumes of 0.2 ml/100 grams of body weight could be maintained for all animals.
Dose volumes were […] of body weight.
DCAF, (2,4-bis)-N,N'di(carboxymethyl) amino methyl fluorescein, Nutritional Biochemicals Corporation, Cleveland, Ohio was given as a 1% solution in 2% sodium bicarbonate and 0.8% dextrose. This solution was filtered prior to administration to remove any undissolved particles. Dose volumes of the DCAF solution were 0.2 ml/100 grams of body weight.
The left tibiae were blocked stained with Villanueva's stain, embedded in methyl methacrylate and sectioned at 75-100 u. Cross sections were prepared from the shaft of the tibia where it is joined by the distal portion of the fibula.
These parameters were measured in tibial cross sections and in longitudinal sections through the proximal tibial epiphysis with a 5 mm micrometer which was superimposed optically over the section by placing it in the eyepiece of a microscope. Conversion of the values obtained to actual widths was established with a stage micrometer.
The width between fluorescent labels on the periosteal surface was established at 100x by making 4 measurements at 90. degree intervals around the circumference of the labeled area. Measurements were made from the middle of one label to the middle of' the next. A mean value was then established for each surface and multiplied times the conversion factor to obtain the actual distance in microns. Bone apposition rates were then calculated by dividing this value by the number of days over which the fluorescent labels were given (i.e. 7 days).
Endosteal bone apposition was established at 100x by making 4 measurements at equidistant points across the section from the bottom of the plate to the closest fluorescent label (the last label administered). A mean value was then established and multiplied times a conversion factor to obtain the actual distance in microns.
A mean value was then established and multiplied times a conversion factor to obtain the actual distance in microns. Bone resorption rates were calculated by dividing this value by number of days over which the experiment was conducted (i.e. 10 days).

As to `O=C(O)c1cccs1` [Thiophene-2-Carboxylic Acid, reference compound], in the assay on Fetal rat bone, the inhibition at 390 µM is 43% and the inhibition at 1560 µM was found to be 47.8%.
`O=C(O)Cc1nc2ccccc2[nH]1` [BMZAA, benzimidazole-2-acetic acid]: in assay [1] (dose 5 uM), the “ERR (endosteal resorption rate)” value was determined as 1.0, the “EBAR (endosteal bone apposition rate)” value stood at 3.8 and the “P BAR (periosteal bone apposition rate)” value is given as 15.5. Further, in assay [1] (dose 16 uM), the “ERR (endosteal resorption rate)” value is on record as 1.5, the “EBAR (endosteal bone apposition rate)” value was determined as 3.4 and the “P BAR (periosteal bone apposition rate)” value was 18.1.
For `O=C(O)Cc1cc2ccccc2s1` [BTAA, benzothiophene-2-acetic acid], in assay [1] (dose 5 uM), the “ERR (endosteal resorption rate)” value is recorded as 1.2, the “EBAR (endosteal bone apposition rate)” value turned out to be 3.5 and the “P BAR (periosteal bone apposition rate)” value stood at 16.0. Further, in assay [1] (dose 16 uM), the “ERR (endosteal resorption rate)” value is 0.9, the “EBAR (endosteal bone apposition rate)” value turned out to be 3.9 and the “P BAR (periosteal bone apposition rate)” value is 18.1.
As to `O=C(O)c1cc2ccccc2s1` [BTCA, benzothiophene-2-carboxylic acid], in assay [1] (dose 5 uM), the “ERR (endosteal resorption rate)” value amounted to 2.9, the “EBAR (endosteal bone apposition rate)” value is 3.5 and the “P BAR (periosteal bone apposition rate)” value is listed as 18.2. Moreover, in assay [1] (dose 16 uM), the “ERR (endosteal resorption rate)” value is reported as 3.3, the “EBAR (endosteal bone apposition rate)” value was determined as 3.4 and the “P BAR (periosteal bone apposition rate)” value came out at 16.2. In addition, the “bone resorption (conclusion in words)” value in assay [1] (summary of the rat test table) is given as “does not significantly reduce bone resorption”.
In the case of `O=P(O)(O)C(Cl)(Cl)P(=O)(O)O` [Cl2MDP, dichloro-methylene-diphosphonate], in assay [1] (dose 16 uM), the “ERR (endosteal resorption rate)” value worked out at 1.3, the “EBAR (endosteal bone apposition rate)” value is recorded as 3.2 and the “P BAR (periosteal bone apposition rate)” value is 14.8. Besides, in assay [1] (dose 80 uM), the “ERR (endosteal resorption rate)” value is reported as 0, the “EBAR (endosteal bone apposition rate)” value is reported as 3.1 and the “P BAR (periosteal bone apposition rate)” value is given as 14.8.
For the molecule `O=C(O)Cc1cccs1` [Thiophene-2-Acetic Acid], in the assay on Fetal rat bone, the inhibition at 390 µM is 47.8% and the inhibition at 1560 µM was found to be 107%.
For the molecule `COc1ccc2[nH]c(C(=O)O)cc2c1` [5-Methoxyindole-2-Carboxylic Acid], in the assay on Fetal rat bone, the inhibition at 390 µM was determined as 47.5% and the inhibition at 1560 µM was determined as 80.1%.
